Test results as given in patent US7572783B2 (Amgen Inc., priority 2004, dated 2009).

Biological target: T1, human GHSR1a (Homo sapiens, UniProt Q92847)
T1 construct: expressed in transfected cells
Test: Aequorin luminescent functional assay (intracellular Ca2+, ghrelin-stimulated)
Details: stable cell line expressing human GHSR1a and apoaequorin; final ghrelin 3x EC50 (20 nM); read-out: Class (based on IC50 values)
Method: IC50 values of inventive compounds may be assessed as follows. An aequorin (Euroscreen) luminescent assay (Stabels et al., 1997) measuring the intracellular Ca^2+ concentration was used as the functional assay to evaluate the potency of the compounds. A stable cell line, expressing human GHSR1a and apoaequorin in mitochondria was used in the aequorin assay. 5×10^6 cells per mL were incubated at room temperature in HyClone Media (Perbio) supplemented with 2 μM coelenterazine (Molecular Probes). After 2 hrs cells were diluted to 1×10^6 cells per ml in HyClone Medium.
50 μL of the cell suspension was added to each well of a 96-well plate containing 50 μL of compound, diluted in HyClone Medium. The cell suspension/compound mixture was incubated for 30 seconds before 50 μL of a 9× EC50 concentrations of a human ghrelin solution, in HyClone Medium, was injected. The final Ghrelin concentration was 3× EC50 (20 nM). Aequorin luminescence elicited by intracellular Ca^2+ in the cells was recorded for a total of 60 seconds with a microplate luminometer (Microlumate, Berthold). IC50 of the compounds in this assay was calculated with Prism 4.

T1 sequence (Q92847 whole entry): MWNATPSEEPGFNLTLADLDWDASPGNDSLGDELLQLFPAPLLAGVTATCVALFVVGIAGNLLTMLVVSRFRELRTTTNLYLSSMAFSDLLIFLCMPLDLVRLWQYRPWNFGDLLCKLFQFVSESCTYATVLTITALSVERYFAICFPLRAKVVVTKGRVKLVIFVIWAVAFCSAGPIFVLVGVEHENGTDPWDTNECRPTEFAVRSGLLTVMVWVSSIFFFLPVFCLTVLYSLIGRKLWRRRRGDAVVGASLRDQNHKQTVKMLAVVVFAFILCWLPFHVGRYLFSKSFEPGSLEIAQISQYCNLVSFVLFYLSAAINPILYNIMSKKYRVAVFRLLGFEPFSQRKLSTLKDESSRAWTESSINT

IC50	SMILES
≤ 10 nM	O=C1c2cc(Oc3ccc(F)cc3F)ccc2CCN1[C@@H](c1cccc(CNCC2CC2)n1)C1CC1 [(R)-2-(cyclopropyl(6-((cyclopropylmethylamino)methyl)pyridin-2-yl)methyl)-7-(2,4-difluorophenoxy)-3,4-dihydroisoquinolin-1(2H)-one]
≤ 10 nM	Cc1cc(F)ccc1Oc1ccc2c(c1)C(=O)N(C(C(=O)NC1CCN(Cc3ccccc3)CC1)C(C)C)Cc1ncc(C)n1-2 (stereo not shown) [N-(1-benzyl-piperidin-4-yl)-2-[8-(4-fluoro-2-methyl-phenoxy)-1-methyl-6-oxo-4H,6H-3,5,10b-triaza-benzo[e]azulen-5-yl]-3-methyl-butyramide]
10 to 50 nM	Cc1ccccc1Oc1ccc2ncn(C(C(=O)NC3CCN(Cc4ccccc4)CC3)C(C)C)c(=O)c2c1 (stereo not shown) [N-(1-benzyl-piperidin-4-yl)-3-methyl-2-(4-oxo-6-o-tolyloxy-4H-quinazolin-3-yl)-butyramide]
50 to 500 nM	CC(C)C(COC(=O)NC1CCN(Cc2ccc(F)cc2)CC1)N1CC(=O)Nc2ccc(Oc3ccc(F)cc3)cc2C1=O (stereo not shown) [[1-(4-Fluoro-benzyl)-piperidin-4-yl]-carbamic acid 2-[7-(4-fluoro-phenoxy)-2,5-dioxo-1,2,3,5-tetrahydro-benzo[e][1,4]diazepin-4-yl]-3-methyl-butyl ester]
